# Test results: patent US6897209B2, “Labelled factor XIIIa substrates” (GE Healthcare Limited, priority 1997, dated 2005)
# Key:
# Factor XIIIa = molecular target: T1, Factor XIIIa (Homo sapiens, UniProt P00488); test: Factor XIIIa dependency of incorporation (dimethylcasein uptake, normal vs Factor XIII deficient plasma); type: biochemical; conditions: 1 KBq/ml, 60 minutes; uptake in normal plasma minus Factor XIII deficient plasma
# T1 construct: Factor XIII is transformed into its active form Factor XIIIa by thrombin in the presence of calcium ions; from tissue; host or cells: human plasma
# T1 sequence (P00488 39-732 limits assumed): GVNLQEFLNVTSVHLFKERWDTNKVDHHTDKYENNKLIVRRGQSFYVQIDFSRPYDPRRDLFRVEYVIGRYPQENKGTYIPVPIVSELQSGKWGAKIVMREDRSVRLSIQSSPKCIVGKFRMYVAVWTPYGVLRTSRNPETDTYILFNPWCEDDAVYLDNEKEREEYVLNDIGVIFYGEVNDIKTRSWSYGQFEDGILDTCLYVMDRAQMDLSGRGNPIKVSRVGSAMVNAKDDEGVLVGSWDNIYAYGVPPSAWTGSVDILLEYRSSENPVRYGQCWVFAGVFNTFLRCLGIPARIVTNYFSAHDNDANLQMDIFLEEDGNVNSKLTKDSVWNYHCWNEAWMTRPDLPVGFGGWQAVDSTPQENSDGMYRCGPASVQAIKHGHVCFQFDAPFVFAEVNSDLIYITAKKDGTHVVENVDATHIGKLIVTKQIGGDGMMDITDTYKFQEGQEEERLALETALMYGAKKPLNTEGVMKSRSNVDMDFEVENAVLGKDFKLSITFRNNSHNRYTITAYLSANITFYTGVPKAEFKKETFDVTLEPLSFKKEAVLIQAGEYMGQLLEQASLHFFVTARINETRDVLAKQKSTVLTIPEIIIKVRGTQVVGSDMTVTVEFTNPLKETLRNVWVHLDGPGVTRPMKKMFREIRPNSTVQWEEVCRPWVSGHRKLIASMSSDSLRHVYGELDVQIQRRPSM
# Description: The assay was changed by replacing the mercaptoethanol with aprotinin at a final concentration of 2 μg/ml, and dimethylcasein (DMC) was used instead of casein.
# [1] = test system: clots induced in rat inferior vena cava; test: Incorporation into clots induced in a rat model (rat inferior vena cava model); type: in vivo; conditions: rat IVC model
# Description: The rats (Male Wistar, 250-350 g) were anaesthetised with 15% urethane. After laparotomy, the vena cava was isolated and freed of surrounding fat tissue. […] The average weight of the clots formed in this model was around 27 mg, n=32, (5-50 mg range). The so compounds were injected 5 min post-induction. After 60 min the animals were sacrificed and the clot removed, weighed and counted. Other tissues e.g. blood, lung, heart, were also dissected and counted. The uptake of tracer into the clot was determined as the relative concentration (cpm/g of clot by dose/g animal ) and clot to background tissue.
# human plasma clots [2] = molecular target: T2, human plasma clots (Homo sapiens, UniProt P00488); test: Incorporation into human plasma clots (in vitro plasma clot assay); type: biochemical
# T2 construct: Factor XIII is transformed into its active form Factor XIIIa by thrombin in the presence of calcium ions; from tissue; host or cells: human plasma, clotted in vitro with thrombin and calcium chloride
# T2 sequence (P00488 39-732): T1 sequence (P00488 39-732 limits assumed)
# Description: (§1) Incorporation of radiolabelled substrates into fibrin was investigated by induction of an in vitro human plasma clot in the following manner. To a siliconised 5 ml glass vial was added, (a) 800 μl of Tris(hydroxymethyl)aminomethane buffered saline pH 7.5 containing calcium chloride (50 mM Tris, 150 mM sodium chloride, 4 mM calcium chloride.), (b) 40 μl of physiological salt solution containing 100 units of thrombin per ml, (c) 400 μl of human plasma containing the radiolabelled substrate at a concentration of typically 10 kBq/ml. To aid induction of clot a roughened glass rod was added to the reaction vial. Control vials were prepared similarly but with the omission of thrombin and calcium chloride.
# (§2) The proportion of total radioactivity was calculated by counting in suitable detection apparatus.
# (§3) The fraction of radioactivity retained on the filter, after subtraction of the non-specific binding determined from the control, is a measure of incorporation into the filtered clots.
# human plasma clots [3] = test: as above; type: biochemical; conditions: control vials without thrombin and calcium chloride, 60 minutes
# Description: as §1, §2, §3
# [4] = Normal rat biodistribution; type: in vivo; conditions: i.v., male Wistar rats, Mean±SD n=3
# Description: The resolution of a clot image is dependant on the combination of rate of incorporation of the radiopharmaceutical and its blood/tissues clearance rate. For this reason the biodistribution of several compounds has been determined in rats. Male Wistar (100-150 g) rats were injected i.v. with 0.1-0.2 ml of radiolabelled tracer solution (8 MBq/ml) and dissected at different times post-injection. The % ID in each of the selected tissues was measured. Some animals were kept in metabolism cages to be able to determine the % ID excreted in urine and faeces. The dissection times used for the majority of the agents was 2, 15, 30, 60, 240 min. Data are shown as % ID, Mean±SD, (n=3).
# [5] = compound injected 5 min post-induction, clot removed after 60 min
compound,measurement,setting,value
"NCCCCCNS(=O)(=O)c1ccc(C(=O)NCCCNC(=O)c2ccc(NN)nc2)cc1 [Compound 24, N-[6-hydrazinopyridine-3-carbonyl]-N′-(4-N-(5-aminopentyl)amidosulphonyl)benzoyl propane-1,3-diamine]",% specific DMC casein uptake,Factor XIIIa,22.5%
same,Clot/Blood,[1]; 60 min,1.8
same,Clot/Heart,[1]; 60 min,3.9
same,Clot/Liver,[1]; 60 min,0.93
same,Clot/Lung,[1]; 60 min,2.5
same,% ID/g (clot uptake),[1]; [5],0.21 ± 0.02 % ID/g
same,Relative conc (cpm/g of clot by dose/g animal),[1]; [5],0.62 ± 0.1
same,% specific uptake*,human plasma clots [2]; % retained with thrombin − % retained no thrombin,13.8%
same,% retained in plasma clot assay (with thrombin),"human plasma clots [2]; human plasma with thrombin and calcium chloride, 60 minutes, ca. 20° C.",14%
same,% retained in plasma clot assay (no thrombin),human plasma clots [3],0.2%
same,% ID Blood,[4]; 2 min post-injection,18.2 ± 1.39 % ID
same,% ID GI Tract,[4]; 2 min post-injection,7.48 ± 0.45 % ID
same,% ID Heart,[4]; 2 min post-injection,0.73 + 0.1 % ID
same,% ID Kidney,[4]; 2 min post-injection,10.2 ± 3.07 % ID
same,% ID Liver,[4]; 2 min post-injection,5.38 ± 0.75 % ID
same,% ID Lung,[4]; 2 min post-injection,1.99 ± 0.12 % ID
same,% ID Muscle,[4]; 2 min post-injection,28.5 ± 0.25 % ID
same,% ID Urine,[4]; 2 min post-injection,0.11 ± 0.1 % ID
same,% ID Blood,[4]; 15 min post-injection,7.11 ± 1.29 % ID
same,% ID GI Tract,[4]; 15 min post-injection,23.3 ± 6.5 % ID
same,% ID Heart,[4]; 15 min post-injection,0.3 + 0.08 % ID
same,% ID Kidney,[4]; 15 min post-injection,4.11 ± 1.31 % ID
same,% ID Liver,[4]; 15 min post-injection,6.7 ± 1.21 % ID
same,% ID Lung,[4]; 15 min post-injection,0.78 ± 0.16 % ID
same,% ID Muscle,[4]; 15 min post-injection,17.9 ± 4.38 % ID
same,% ID Urine,[4]; 15 min post-injection,8.64 ± 5.6 % ID
same,% ID Blood,[4]; 30 min post-injection,3.86 ± 0.62 % ID
same,% ID GI Tract,[4]; 30 min post-injection,31.5 ± 11.9 % ID
same,% ID Heart,[4]; 30 min post-injection,0.13 + 0.03 % ID
same,% ID Kidney,[4]; 30 min post-injection,2.52 ± 1.1 % ID
same,% ID Liver,[4]; 30 min post-injection,3.67 ± 0.62 % ID
same,% ID Lung,[4]; 30 min post-injection,0.39 ± 0.06 % ID
same,% ID Muscle,[4]; 30 min post-injection,10.2 ± 1.09 % ID
same,% ID Urine,[4]; 30 min post-injection,31.0 ± 9.41 % ID
same,% ID Blood,[4]; 60 min post-injection,1.6 ± 0.57 % ID
same,% ID GI Tract,[4]; 60 min post-injection,38.8 ± 9.6 % ID
same,% ID Heart,[4]; 60 min post-injection,0.06 + 0.03 % ID
same,% ID Kidney,[4]; 60 min post-injection,1.4 ± 0.38 % ID
same,% ID Liver,[4]; 60 min post-injection,1.6 ± 0.29 % ID
same,% ID Lung,[4]; 60 min post-injection,0.18 ± 0.06 % ID
same,% ID Muscle,[4]; 60 min post-injection,3.62 ± 0.9 % ID
same,% ID Urine,[4]; 60 min post-injection,44.9 ± 7.32 % ID
same,% ID Blood,[4]; 240 min post-injection,0.29 ± 0.06 % ID
same,% ID GI Tract,[4]; 240 min post-injection,46.3 ± 4.4 % ID
same,% ID Heart,[4]; 240 min post-injection,0.02 + 0.01 % ID
same,% ID Kidney,[4]; 240 min post-injection,0.92 ± 0.37 % ID
same,% ID Liver,[4]; 240 min post-injection,0.3 ± 0.03 % ID
same,% ID Lung,[4]; 240 min post-injection,0.05 ± 0.02 % ID
same,% ID Muscle,[4]; 240 min post-injection,1.1 ± 0.32 % ID
same,% ID Urine,[4]; 240 min post-injection,49.51 ± 4.62 % ID
